What was measured:
EphA4 [1] = biological target: T1, EphA4 (Mus musculus, UniProt Q03137); test: Proof of mechanism: EphA4 phosphorylation in mouse brain after dosing; assay type: in vivo; set-up: from tissue; host or cells: brain of male NMRI mice; conditions: male NMRI mice, 10 mg/kg; for crossing of the blood brain barrier: inferred from block of brain EphA4 phosphorylation; for EphA4 phosphorylation in vivo in mouse brain: i.v., sacrificed 25 minutes or 1 hour after dosing, FIG. 4
Method: Animals were given an i.v dose of relevant compound and sacrificed 25 minutes or 1 hour after dosing (0.25 h or 1 h), the brains removed and subjected to EphA4 immunoprecipitation followed by a phospho-tyrosine Western blot. Four animals were used as controls and three-animals each were used per time point for each drug. From top to bottom, the compounds tested were Compound 1, Compound 7, and Compound 6.
Male NMRI mice were injected with relevant compounds at a dose of 10 mg/kg body weight and were sacrificed either 25 minutes or 1 hour following the dosing (0.25 h or 1 h shown in FIG. 4). The brains were removed and one half of each brain was weighed and homogenized in appropriate volume of lysis buffer for 30 seconds (10 seconds pulse and 10 seconds off—3 times). The homogenate was spun at 12,000 g for 30 minutes. Protein amounts were estimated for supernatants (using BCA) and equal amounts of protein for each condition were subjected to EphA4 immunoprecipitation followed by a phospho-tyrosine western blot. Four control animals were used and three experimental animals per time point were used for each of the compounds tested (Compounds 1, 2, 6, and 7)

[2] = tested on: embryonic cortical neurons; test: In vitro assay for neurite outgrowth/axon regeneration: E16 cortical neurons on astrocyte monolayers; assay type: cell-based; conditions: 100 nM; immunofluorescence images, FIG. 2A
Method: This assay is used to assess neurite outgrowth inhibition of embryonic cortical neurons by Eph receptors expressed on astrocytes or neurite outgrowth inhibition of post-natal cortical neurons by ephrin ligand present in myelin. E16 (embryonic day 16) cortical neurons are plated onto confluent astrocyte monolayers plated in 4-well chamber slides. Pharmacological inhibitors, are added to the medium and the length of longest neurite from each neuron is measured under each condition (FIG. 2A depicts an example of neurons plated in the presence of Compound 1 and visualized with the neuronal marker, Tuj-1) and compared to average neurite length on astrocytes in the absence of any pharmacological agents. FIG. 2B depicts the quantitation of neurite outgrowth effects observed with Compound 6 and Compound 7 (all tested at 100 nM concentration) in cortical cultures plated on astrocytes.

EphA4 [3] = biological target: T1, EphA4; test: EphA4 autophosphorylation assay in primary astrocyte cultures (EphA4 immunoprecipitation, phospho-tyrosine Western); assay type: cell-based; set-up: Primary astrocyte cultures are established from neonatal mouse cortex; endogenous in cells; host or cells: primary astrocytes from neonatal mouse cortex; conditions: cells pre-treated with 100 nM; FIG. 1A
Method: FIG. 1A, lanes and 2 represent samples from cells treated with either control IgG-Fc or with the ligand ephrinB3-Fc. […] represent samples from cells that have been pre-treated with Compound 1 (100 nM) and are then stimulated with IgG-Fc or ephrinB3-Fc in the combined presence of the inhibitor (Compound I)(lanes 3, 4) or in its absence (lanes 5, 6). FIG. 1B, lanes 1 and 2 show EphA4 phosphorylation in control (untreated) and ephrinB3-Fc stimulated cells following serum starvation. All other lanes represent samples from cells stimulated with ephrinB3-Fc in the presence of varying concentrations (as indicated) of tested Eph inhibitors.
Primary astrocyte cultures are established from neonatal mouse cortex and purified so as to get about 95-98 pure astrocyte cultures. […] Cells are lysed, and the lysates subjected to EphA4 immunoprecipitation and subsequently analysed on Westerns for level of receptor phosphorylation using a phospho-tyrosine antibody.

astrocytes = test: In vitro assay for astrogliosis: astrocyte scratch wound (cytokine-induced migration); assay type: cell-based, mouse; conditions: relative distance of cell migration compared to control; FIG. 3
Method: The white bar represents the addition of Compound 6. The black bar represents no compounds added.
Assay Astrocytes are prepared from the cerebral cortex of neonatal C57BL/6 mice (P1-P2). Cells are maintained in Dulbecco's modified Eagle's medium with 10% FBS. 4-7 weeks old astrocytes are plated to confluence in 2 well chamber slides coated with poly-D-lysine for the scratch wound assay and serum starved. 48 hrs after serum starvation, the monolayer of astrocytes is scratched with sterile 200 μl tips and washed twice with PBS to get rid of cell debris. Conditioned medium (+/−cytokines) is added to the wounded astrocytes. The microscopic images of the scratch is captured at a magnification of 10× right after scratch and considered as time point 0.24 hrs, 48 hrs or 72 hrs after scratch, the same region of scratch is imaged and fixed with methanol containing, 1 μg/ml of DAPI to monitor migration and proliferation of astrocytes.

T1 sequence (Q03137 20-986): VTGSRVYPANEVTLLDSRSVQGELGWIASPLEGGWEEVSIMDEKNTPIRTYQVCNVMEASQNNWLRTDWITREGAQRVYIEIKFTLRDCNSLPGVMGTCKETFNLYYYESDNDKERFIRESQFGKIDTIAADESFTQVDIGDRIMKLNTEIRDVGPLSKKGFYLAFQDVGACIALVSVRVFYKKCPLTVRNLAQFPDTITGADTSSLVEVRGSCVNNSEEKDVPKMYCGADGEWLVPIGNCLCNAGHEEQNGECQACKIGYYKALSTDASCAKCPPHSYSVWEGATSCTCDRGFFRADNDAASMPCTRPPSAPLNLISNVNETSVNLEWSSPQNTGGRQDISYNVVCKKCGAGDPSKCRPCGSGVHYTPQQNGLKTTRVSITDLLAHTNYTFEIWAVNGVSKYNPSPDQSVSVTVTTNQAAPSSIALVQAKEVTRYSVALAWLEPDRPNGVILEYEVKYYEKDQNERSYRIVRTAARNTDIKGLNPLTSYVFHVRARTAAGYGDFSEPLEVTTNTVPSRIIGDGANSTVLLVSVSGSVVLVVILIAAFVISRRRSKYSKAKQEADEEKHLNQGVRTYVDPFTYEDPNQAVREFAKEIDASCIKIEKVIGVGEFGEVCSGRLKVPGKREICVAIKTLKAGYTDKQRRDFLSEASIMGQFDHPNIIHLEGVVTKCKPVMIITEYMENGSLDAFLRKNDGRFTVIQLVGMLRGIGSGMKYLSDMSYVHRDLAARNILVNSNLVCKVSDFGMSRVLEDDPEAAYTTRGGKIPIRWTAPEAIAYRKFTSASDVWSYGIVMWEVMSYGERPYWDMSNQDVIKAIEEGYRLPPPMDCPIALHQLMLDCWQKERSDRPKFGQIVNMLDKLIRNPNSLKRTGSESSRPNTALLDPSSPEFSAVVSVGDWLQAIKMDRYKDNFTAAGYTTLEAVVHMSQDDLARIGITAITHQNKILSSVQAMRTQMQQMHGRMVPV

Row | Compound | melting point | other results
1 | COc1ccc(-c2cnn3c(N)c(-c4ccc(F)c(Cl)c4)c(C)nc23)cc1 [Example 102, 6-(3-Chloro-4-fluoro-phenyl)-3-(4-methoxy-phenyl)-5-methyl-pyrazolo[1,5-a]-pyrimidin-7-ylamine] | 224 to 227 °C | 
2 | COc1ccc(-c2cnn3c(N)c(-c4cccc(Cl)c4)c(CF)nc23)cc1OC [Example 99, 6-(3-Chloro-phenyl)-3-(3,4-dimethoxy-phenyl)-5-fluoromethyl-pyrazolo[1,5-a]pyrimidin-7-ylamine] | 228 to 230 °C | 
3 | COc1ccc(-c2cnn3c(N)c(-c4ccc(F)cc4)c(C)nc23)cc1 [Example 103, 6-(4-Fluoro-phenyl)-3-(4-methoxy-phenyl)-5-methyl-pyrazolo[1,5-a]pyrimidin-7-ylamine] | 243 to 244 °C | 
4 | Cc1nc2c(-c3cccc(N4CCN(CCO)CC4)c3)cnn2c(N)c1-c1ccc(F)c(Cl)c1 [Compound 4, 2-(4-{3-[7-Amino-6-(3-chloro-4-fluoro-phenyl)-5-methyl-pyrazolo[1,5-a]pyrimidin-3-yl]-phenyl}-piperazin-1-yl)-ethanol] | 104 to 107 °C | 
5 | Cc1nc2c(-c3ccc(OCCN(C)C)cc3)cnn2c(N)c1-c1cccc(Cl)c1 [Compound 7, 6-(3-Chloro-phenyl)-3-[4-(2-dimethylamino-ethoxy)-phenyl]-5-methyl-1-pyrazolo[1,5-a]pyrimidin-7-ylamine] |  | crossing of the blood brain barrier (EphA4 [1]): cross the blood brain barrier; EphA4 phosphorylation in vivo in mouse brain (EphA4 [1]): effectively block phosphorylation of EphA4 receptor in vivo
6 | CN(C)c1ccc(-c2cnn3c(N)c(-c4ccc(NS(=O)(=O)c5cccc(Cl)c5Cl)cc4)cnc23)cc1 [Example 17, N-{4-[7-Amino-3-(4-dimethylamino-phenyl)-pyrazolo[1,5-a]pyrimidin-6-yl]-phenyl}-2,3-dichloro-benzenesulfonamide] | 143 to 146 °C | 
7 | COc1ccc(-c2cnn3c(N)c(-c4ccc(F)c(Cl)c4)c(C)nc23)cc1OC [Example 101, 6-(3-Chloro-4-fluoro-phenyl)-3-(3,4-dimethoxy-phenyl)-5-methyl-pyrazolo[1,5-a]pyrimidin-7-ylamine] | 235 to 238 °C | 
8 | COc1ccc(-c2cnn3c(N)c(-c4cccc(Cl)c4)c(C)nc23)cc1OC [Compound 3, 6-(3-Chloro-phenyl)-3-(3,4-dimethoxy-phenyl)-5-methyl-pyrazolo[1,5-a]pyrimidin-7-ylamine] | 223 to 226 °C | 
9 | CN1CCN(c2cccc(-c3cnn4c(N)c(-c5ccccc5Cl)cnc34)c2)CC1 [Example 85, 6-(2-Chloro-phenyl)-3-[3-(4-methyl-piperazin-1-yl)-phenyl]-pyrazolo[1,5-a]-pyrimidin-7-ylamine] | 200 to 203 °C | 
10 | CCN(CC)C1CCN(c2cccc(-c3cnn4c(N)c(-c5cccc(Cl)c5)c(C)nc34)c2)CC1 [Compound 1, 6-(3-Chloro-phenyl)-3-[3-(4-diethylamino-piperidin-1-yl)-phenyl]-5-methyl-pyrazolo[1,5-a]pyrimidin-7-ylamine] | 163 to 168 °C | overcoming neurite outgrowth inhibition [2]: able to overcome neurite outgrowth inhibition; inhibition of EphA4 auto-phosphorylation (phospho-tyrosine Western blot) (EphA4 [3]): inhibition of EphA4 auto-phosphorylation; crossing of the blood brain barrier (EphA4 [1]): cross the blood brain barrier; EphA4 phosphorylation in vivo in mouse brain (EphA4 [1]): effectively block phosphorylation of EphA4 receptor in vivo
11 | CN1CCN(c2ccc(-c3cnn4c(N)c(-c5ccccc5Cl)cnc34)cc2)CC1 [Example 84, 6-(2-Chloro-phenyl)-3-[4-(4-methyl-piperazin-1-yl)-phenyl]-pyrazolo[1,5-a]-pyrimidin-7-ylamine] | 197 to 200 °C | 
12 | CN(C)c1ccc(-c2cnn3c(N)c(-c4ccc(OS(=O)(=O)c5ccc(Cl)cc5)cc4)cnc23)cc1 [Example 18, 4-Chloro-benzenesulfonic acid 4-[7-amino-3-(4-dimethylamino-phenyl)-pyrazolo[1,5-a]pyrimidin-6-yl]-phenyl ester] | 186 to 191.88 °C | 
13 | COc1ccc(-c2cnn3c(N)c(-c4cccc(Cl)c4)c(C)nc23)cc1 [Example 95, 6-(3-Chloro-phenyl)-3-(4-methoxy-phenyl)-5-methyl-pyrazolo[1,5-a]pyrimidin-7-ylamine] | 171 to 172 °C | 
14 | Cc1nc2c(-c3cccc(N4CCN(CCO)CC4)c3)cnn2c(N)c1-c1ccc(F)c(F)c1 [Example 108, 2-(4-{3-[7-Amino-6-(3,4-difluoro-phenyl)-5-methyl-pyrazolo[1,5-a]pyrimidin-3-yl]-phenyl}-piperazin-1-yl)-ethanol] | 172 to 174 °C | 
15 | CCN(CC)C1CCN(c2cccc(-c3cnn4c(N)c(-c5ccc(F)cc5)c(C)nc34)c2)CC1 [Example 112, 3-[3-(4-Diethylamino-piperidin-1-yl)-phenyl]-6-(4-fluoro-phenyl)-5-methyl-pyrazolo[1,5-a]pyrimidin-7-ylamine] | 208 to 210 °C | 
16 | CN1CCN(c2cccc(-c3cnn4c(N)c(Cc5ccccc5)cnc34)c2)CC1 [Example 98, 6-Benzyl-3-[3-(4-methyl-piperazin-1-yl)-phenyl]-pyrazolo[1,5-a]pyrimidin-7-ylamine] | 72 to 75 °C | 
17 | Cc1nc2c(-c3cccc(N4CCN(C)CC4)c3)cnn2c(N)c1-c1cccc(Br)c1 [Example 91, 6-(3-Bromo-phenyl)-5-methyl-3-[3-(4-methyl-piperazin-1-yl)-phenyl]-pyrazol-o[1,5-a]pyrimidin-7-ylamine] | 107 to 113 °C | 
18 | COc1ccc(-c2cnn3c(N)c(-c4cccc(Cl)c4)c(CN4CCNCC4)nc23)cc1OC [Compound 6, 6-(3-Chloro-7-phenyl)-3-(3,4-dimethoxy-phenyl)-5-piperazin-1-ylmethyl-pyrazolo[1,5-a]pyrimidin-7-ylamine] |  | crossing of the blood brain barrier (EphA4 [1]): cross the blood brain barrier; EphA4 phosphorylation in vivo in mouse brain (EphA4 [1]): effectively block phosphorylation of EphA4 receptor in vivo; astrocyte migration induced by cytokines (TGF-α, LIF, and IFN) (astrocytes): block astrocyte migration
19 | Cc1nc2c(-c3cccc(N4CCN(C5CCN(C)CC5)CC4)c3)cnn2c(N)c1-c1cccc(Cl)c1 [Compound 5, 6-(3-Chloro-phenyl)-5-methyl-3-{3-[4-(1-methyl-piperidin-4-yl)-piperazin-1-yl]-phenyl}-pyrazolo[1,5-a]pyrimidin-7-ylamine] | 180 to 185 °C | 

Reference: patent publication US20090069315A1, “Use of Pyrazolo(1,5A)Pyrimidin-7-YL Amine Derivatives in the Treatment of Neurological Disorders” (priority 2006, published 2009)
